# Experimental data: article PMC6092832, “Anti-inflammatory activities of Aedes aegypti cecropins and their protection against murine endotoxin shock” (Parasites & Vectors, 2018)
# Read-outs that look alike come from different tables or passages of the source. Where no end group is shown, it is not given here.
# Key:
# Type in all cases: cell-based
# [1] = test system: LPS-stimulated mouse peritoneal macrophages
# Description: (§1) ^aAnti-inflammatory interactions between peptide 1 and peptide 2 of AeaeCec peptides were determined by the chequerboard assay as described previously. First, 2-fold serial dilutions of peptides were prepared. Next, peptides were dissolved in PBS and added to mouse macrophages to final concentrations of 5, 2.5, 1.25, 0.625, 0.3125 µMin each well of a 96-well plate in the presence of E. coli LPS (100 ng/ml). The same volume of PBS served as a control. After incubation at 37˚Cfor 24 h, the culture supernatants of mouse macrophages were detected for the NO production (nitrite accumulation) using Griess reagent. Half maximal inhibitory concentrations (IC50) were calculated. The fractional inhibitory concentration index (FICI) was calculated for each combination using this equation: FICI = FICA+ FICB, where FICA= IC50 of peptide A in combination/IC50 of peptide A alone, and FICB= IC50 of peptide B in combination/IC50 of peptide B alone. FICI of ≤ 0.5 was interpreted as synergy, 0.5 < FICI ≤ 1.0 as additive, 1.0 < FICI ≤ 4.0 as indifferent, and FICI > 4.0 as antagonism. Data were calculated from three independent experiments and presented as mean ± SEM.
# as §1, with “2” for “2 of AeaeCec peptides”, “µM in” for “µMin”, “supernatant” for “supernatants”, “assayed” for “detected”, “for” for “for the”, “≤1.0” for “≤ 1.0”
# E. coli = test system: E. coli
# Excerpt: MIC: minimal inhibitory concentration. These concentrations represent mean values of three independent experiments performed in duplicates. CI: clinically isolated strain.
# [2] = test system: mouse peritoneal macrophages; assay: CCK-8 cytotoxic assay; conditions: 24 h
# Description: Cell Counting Kit-8 (CCK-8) was used to detect the cytotoxicity of AeaeCec1-5 against mammalian cells. In brief, mouse peritoneal macrophages, human PBMCs and Vero E6 cells were seeded in 96-well plates (2×10^4 cells/well, 100 μl/well). After cells adhered to culture plate, the culture medium was transferred with a two-fold dilution series of AeaeCec1-5 beginning with 50 μM (100 μl) prepared in serum-free RPMI-1640 for mouse macrophages and human PBMCs, and serum-free DMEM for Vero E6 cells. After incubation at 37 °C for 24 h, CCK-8 solution (10 μl/well) was added for an additional 4 h incubation. The absorbance at 450 nm was recorded on a microplate reader (Epoch Etock, BioTek, Vermont, USA).
# Supplementary file 13071_2018_3000_MOESM2_ESM.tif: Additional file 2: Figure S1. Cytotoxicity of Ae. aegypti cecropins against mammalian cells. a Mice peritoneal macrophages, human PBMCs and Vero E6 cells were exposed to 50 μM AeaeCec1-5, respectively. b Mice peritoneal macrophages and human PBMCs were exposed to series of two-fold AeaeCec5 dilutions ranging from 3.125 to 50 μM, respectively. (TIF 161 kb)
# [3] = IC50 in combination with AeaeCec1 / IC50 alone
# [4] = IC50 in combination with AeaeCec2 / IC50 alone
# [5] = IC50 in combination with AeaeCec4 / IC50 alone
# [6] = IC50 in combination with AeaeCec5(2W→2A) / IC50 alone
# [7] = IC50 in combination with AeaeCec5 / IC50 alone
# [8] = IC50 in combination with AeaeCec3 / IC50 alone
Substance,"FIC [1, 3]","FIC [1, 4]","FIC [1, 5]","FIC [1, 6]","FIC [1, 7]","FIC [1, 8]",minimal inhibitory concentrations (E. coli),cytotoxicity ([2]; 12.5 μM),cell death ([2]; 50 μM),cytotoxicity ([2]; concentration below 6.25 μM)
GGLKKLGKKLEGVGKRVFKASEKALPVVTGYKAI-NH2 [AeaeCec3],0.49,0.52,0.50,0.51,0.47,,,,,
GGLKKLGKKLEGAGKRVFNAAEKALPVVAGAKALRK [AeaeCec1],,0.52,0.54,0.47,0.42,0.53,,,,
RAKFGKKLEKVGKNVFNAAKKALPVVAGYKAL-NH2 [AeaeCec5(2W→2A)],0.61,0.57,0.56,,,0.54,,,,
RWKFGKKLEKVGKNVFNAAKKALPVVAGYKAL-NH2 [AeaeCec5],0.44,0.42,0.46,,,0.47,1.17 to 2.34 µg/mL,9.5%,28.9%,no cytotoxicity
GGLKKLGKKLEGAGKRVFKASEKALPVVVGIKAI-NH2 [AeaeCec4],0.50,0.49,,0.53,0.43,0.52,,,,
GGLKKLGKKLEGAGKRVFNAAEKALPVVAGAKAL-NH2 [AeaeCec2],0.50,,0.53,0.50,0.47,0.49,,,,
